Source: PubChem BioAssay (NCI)
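Briefly, cells in 96-well plates were exposed to five compound concentrations for 48 h, and endpoints were estimated by linear interpolation. TGI: total growth inhibition.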

Assays:
Assay in all cases: growth of human tumour cells (NCI), 48 h
HCC-2998 colon = test system: HCC-2998 colon
UACC-257 melanoma = test system: UACC-257 melanoma
HL-60(TB) leukemia = test system: HL-60(TB) leukemia
RXF 393 renal = test system: RXF 393 renal
HOP-62 NSCLC = test system: HOP-62 NSCLC
U251 CNS = test system: U251 CNS
OVCAR-4 ovarian = test system: OVCAR-4 ovarian
MALME-3M melanoma = test system: MALME-3M melanoma
SK-MEL-2 melanoma = test system: SK-MEL-2 melanoma
SK-MEL-5 melanoma = test system: SK-MEL-5 melanoma
UO-31 renal = test system: UO-31 renal
OVCAR-5 ovarian = test system: OVCAR-5 ovarian
NCI-H226 lung = test system: NCI-H226 lung
HS 578T breast = test system: HS 578T breast
SNB-19 CNS = test system: SNB-19 CNS
A549 NSCLC = test system: A549 NSCLC
CAKI-1 renal = test system: CAKI-1 renal
HT29 colon = test system: HT29 colon
NCI-H460 lung = test system: NCI-H460 lung
KM12 colon = test system: KM12 colon
MOLT-4 leukemia = test system: MOLT-4 leukemia
SF-539 CNS = test system: SF-539 CNS
HOP-92 NSCLC = test system: HOP-92 NSCLC
COLO 205 colon = test system: COLO 205 colon
OVCAR-8 ovarian = test system: OVCAR-8 ovarian
K-562 leukemia = test system: K-562 leukemia
EKVX NSCLC = test system: EKVX NSCLC
SK-OV-3 ovarian = test system: SK-OV-3 ovarian
A498 renal = test system: A498 renal
MDA-MB-231 breast = test system: MDA-MB-231 breast
SN12C renal = test system: SN12C renal
SK-MEL-28 melanoma = test system: SK-MEL-28 melanoma
RPMI-8226 leukemia = test system: RPMI-8226 leukemia
HCT-116 colon = test system: HCT-116 colon
OVCAR-3 ovarian = test system: OVCAR-3 ovarian
DU-145 prostate = test system: DU-145 prostate
SNB-75 CNS = test system: SNB-75 CNS
SF-268 CNS = test system: SF-268 CNS
TK-10 renal = test system: TK-10 renal
M14 melanoma = test system: M14 melanoma
SW-620 colon = test system: SW-620 colon
ACHN renal = test system: ACHN renal
LOX IMVI melanoma = test system: LOX IMVI melanoma
NCI-H23 lung = test system: NCI-H23 lung
MCF7 breast = test system: MCF7 breast
CCRF-CEM leukemia = test system: CCRF-CEM leukemia
MDA-MB-435 = test system: MDA-MB-435
BT-549 breast = test system: BT-549 breast
SF-295 CNS = test system: SF-295 CNS
NCI/ADR-RES ovarian = test system: NCI/ADR-RES ovarian
786-0 renal = test system: 786-0 renal
NCI-H522 lung = test system: NCI-H522 lung
UACC-62 melanoma = test system: UACC-62 melanoma
MDA-N = test system: MDA-N
PC-3 prostate = test system: PC-3 prostate
HCT-15 colon = test system: HCT-15 colon
T-47D breast = test system: T-47D breast
IGROV1 ovarian = test system: IGROV1 ovarian
SR leukemia = test system: SR leukemia

OC(c1ccc(F)cc1)(c1ccc(F)cc1)C1CC1
TGI (HCC-2998 colon): 45.7 µM
TGI (UACC-257 melanoma): 73 µM
TGI (HL-60(TB) leukemia): 47.3 µM
TGI (RXF 393 renal): 67.7 µM
TGI (HOP-62 NSCLC): > 100 µM
TGI (U251 CNS): 59.6 µM
TGI (OVCAR-4 ovarian): 79.2 µM
TGI (MALME-3M melanoma): 65.2 µM
TGI (SK-MEL-2 melanoma): 32.5 µM
TGI (SK-MEL-5 melanoma): 30.2 µM
TGI (UO-31 renal): 59.5 µM
TGI (OVCAR-5 ovarian): > 100 µM
TGI (NCI-H226 lung): 88.1 µM
TGI (HS 578T breast): 82.6 µM
TGI (SNB-19 CNS): > 100 µM
TGI (A549 NSCLC): 94.2 µM
TGI (CAKI-1 renal): 98.7 µM
TGI (HT29 colon): 65.9 µM
TGI (NCI-H460 lung): > 100 µM
TGI (KM12 colon): > 100 µM
TGI (MOLT-4 leukemia): 49.2 µM
TGI (SF-539 CNS): > 100 µM
TGI (HOP-92 NSCLC): 97 µM
TGI (COLO 205 colon): 29.7 µM
TGI (OVCAR-8 ovarian): > 100 µM
TGI (K-562 leukemia): > 100 µM
TGI (EKVX NSCLC): 96.2 µM
TGI (SK-OV-3 ovarian): > 100 µM
TGI (A498 renal): 77.8 µM
TGI (MDA-MB-231 breast): > 100 µM
TGI (SN12C renal): 53.6 µM
TGI (SK-MEL-28 melanoma): > 100 µM
TGI (RPMI-8226 leukemia): 59.2 µM
TGI (HCT-116 colon): > 100 µM
TGI (OVCAR-3 ovarian): > 100 µM
TGI (DU-145 prostate): > 100 µM
TGI (SNB-75 CNS): > 100 µM
TGI (SF-268 CNS): > 100 µM
TGI (TK-10 renal): > 100 µM
TGI (M14 melanoma): 69.2 µM
TGI (SW-620 colon): > 100 µM
TGI (ACHN renal): > 100 µM
TGI (LOX IMVI melanoma): 48.2 µM
TGI (NCI-H23 lung): 35.9 µM
TGI (MCF7 breast): > 100 µM
TGI (CCRF-CEM leukemia): 95.8 µM
TGI (MDA-MB-435): 74.2 µM
TGI (BT-549 breast): 37.9 µM
TGI (SF-295 CNS): > 100 µM
TGI (NCI/ADR-RES ovarian): 58 µM
TGI (786-0 renal): > 100 µM
TGI (NCI-H522 lung): 52.9 µM
TGI (UACC-62 melanoma): > 100 µM
TGI (MDA-N): 44.1 µM
TGI (PC-3 prostate): 53.7 µM
TGI (HCT-15 colon): 68.2 µM
TGI (T-47D breast): > 100 µM
TGI (IGROV1 ovarian): > 100 µM

N=C(c1ccc(-c2cn3cc(C(=N)N4CCCC4)ccc3n2)cc1)N1CCCC1
TGI (UACC-257 melanoma): > 100 µM
TGI (HL-60(TB) leukemia): 0.158 µM
TGI (RXF 393 renal): > 100 µM
TGI (HOP-62 NSCLC): > 100 µM
TGI (U251 CNS): > 100 µM
TGI (OVCAR-4 ovarian): > 100 µM
TGI (MALME-3M melanoma): > 100 µM
TGI (SK-MEL-2 melanoma): > 100 µM
TGI (SK-MEL-5 melanoma): > 100 µM
TGI (UO-31 renal): > 100 µM
TGI (OVCAR-5 ovarian): > 100 µM
TGI (NCI-H226 lung): > 100 µM
TGI (HS 578T breast): > 100 µM
TGI (SNB-19 CNS): > 100 µM
TGI (A549 NSCLC): > 100 µM
TGI (CAKI-1 renal): > 100 µM
TGI (HT29 colon): > 100 µM
TGI (KM12 colon): > 100 µM
TGI (MOLT-4 leukemia): > 100 µM
TGI (HOP-92 NSCLC): > 100 µM
TGI (COLO 205 colon): > 100 µM
TGI (OVCAR-8 ovarian): > 100 µM
TGI (K-562 leukemia): > 100 µM
TGI (EKVX NSCLC): > 100 µM
TGI (SK-OV-3 ovarian): > 100 µM
TGI (MDA-MB-231 breast): > 100 µM
TGI (SN12C renal): > 100 µM
TGI (SK-MEL-28 melanoma): > 100 µM
TGI (RPMI-8226 leukemia): > 100 µM
TGI (HCT-116 colon): > 100 µM
TGI (OVCAR-3 ovarian): > 100 µM
TGI (DU-145 prostate): > 100 µM
TGI (SNB-75 CNS): > 100 µM
TGI (SF-268 CNS): > 100 µM
TGI (TK-10 renal): > 100 µM
TGI (M14 melanoma): > 100 µM
TGI (SW-620 colon): > 100 µM
TGI (ACHN renal): > 100 µM
TGI (SR leukemia): > 100 µM
TGI (LOX IMVI melanoma): > 100 µM
TGI (NCI-H23 lung): > 100 µM
TGI (CCRF-CEM leukemia): 83.1 µM
TGI (MDA-MB-435): > 100 µM
TGI (BT-549 breast): > 100 µM
TGI (SF-295 CNS): > 100 µM
TGI (NCI/ADR-RES ovarian): > 100 µM
TGI (786-0 renal): > 100 µM
TGI (NCI-H522 lung): > 100 µM
TGI (UACC-62 melanoma): > 100 µM
TGI (MDA-N): > 100 µM
TGI (PC-3 prostate): > 100 µM
TGI (HCT-15 colon): > 100 µM
TGI (T-47D breast): > 100 µM
TGI (IGROV1 ovarian): > 100 µM
